Like-named read-outs stand apart in the source and are kept apart here.
Assays:
[1] = tested on: Pseudomonas aeruginosa efflux+ (MB9798), IMP-1; type: cell-based; design: Concentration of metallo-β-lactamase inhibitor which restores susceptibility of efflux + (MB9798) strain to imipenem: unit not given here; settings: efflux+ MB9798; imipenem at 2 μg/mL; in the presence of a class A, C, D serine β-lactamase inhibitor closely related to relebactam
How it was run: (§1)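 Steps: add fixed imipenem and/or ceftazidime (usually CLSI breakpoint) and fixed AmpC-directed class A/C inhibitor to microbroth MIC wells; titrate MBL inhibitor; record concentration regaining susceptibility for each PAO1-derived strain; divide efflux+ by efflux− value.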

[2] = tested on: Pseudomonas aeruginosa efflux− (MB9799), IMP-1; type: cell-based; settings: efflux− MB9799; imipenem at 2 μg/mL; in the presence of a class A, C, D serine β-lactamase inhibitor closely related to relebactam
How it was run: as §1

[3] = biological target: NDM-1 (Klebsiella pneumoniae, UniProt C7C422); assay: biochemical; type: biochemical; settings: fluorescence assay, CCF2-FA substrate, 1 pM enzyme, 2 hours at 25° C.; read-out: NDM-1 IC50
How it was run: (§2)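 Fluorescence assay of metallo-β-lactamase activity using CCF2-FA, a cephalosporin-linked 7-hydroxycoumarin–fluorescein substrate. Inhibitor, enzyme and substrate were incubated together for 2 hours at 25° C. IC50 came from a 4-parameter fit of inhibition versus inhibitor concentration.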

[4] = biological target: IMP-1 (Serratia marcescens, UniProt P52699); assay: biochemical; type: biochemical; settings: fluorescence assay, CCF2-FA substrate, 2 pM enzyme, 2 hours at 25° C.; read-out: IMP-1 IC50
How it was run: as §2

[5] = tested on: Klebsiella pneumoniae expressing VIM-1 (IHMA599644); type: cell-based; settings: VIM-1 strain IHMA599644, with imipenem 1 μg/ml, 95% inhibition of growth
How it was run: (§3)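 Colonies grown overnight on blood agar at 35° C were suspended in saline, diluted 1:100 into 1.1×CAMHB and dispensed. Imipenem was added to 1 μg/ml, then test compound. After 22 hours to 24 hours at 35° C, absorbance was recorded.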

[6] = tested on: Escherichia coli expressing NDM-1 (CLB30005, CLB30016); type: cell-based; settings: NDM-1 strain, with imipenem 1 μg/ml, 95% inhibition of growth
How it was run: as §3

[7] = tested on: Serratia marcescens expressing IMP-1 (CL5741); type: cell-based; settings: IMP-1 strain CL5741, with imipenem 1 μg/ml, 95% inhibition of growth
How it was run: as §3

[8] = biological target: VIM-1 (Pseudomonas aeruginosa (strain ATCC 15692 / DSM 22644 / CIP 104116 / JCM 14847 / LMG 12228 / 1C / PRS 101 / PAO1), UniProt A0A0F7KYQ8); assay: biochemical; settings: CCF2-FA substrate, 30 pM enzyme, 2 hours at 25° C.
How it was run: as §2

[9] = tested on: Pseudomonas aeruginosa MB9798 vs MB9799; settings: fold difference between efflux+ (MB9798) and efflux− (MB9799) strains; imipenem at 2 μg/mL
How it was run: as §1

[10] = fluorescence assay, read-out: VIM-1 IC50

Sequence of NDM-1 (C7C422 whole entry, looked up, species assumed): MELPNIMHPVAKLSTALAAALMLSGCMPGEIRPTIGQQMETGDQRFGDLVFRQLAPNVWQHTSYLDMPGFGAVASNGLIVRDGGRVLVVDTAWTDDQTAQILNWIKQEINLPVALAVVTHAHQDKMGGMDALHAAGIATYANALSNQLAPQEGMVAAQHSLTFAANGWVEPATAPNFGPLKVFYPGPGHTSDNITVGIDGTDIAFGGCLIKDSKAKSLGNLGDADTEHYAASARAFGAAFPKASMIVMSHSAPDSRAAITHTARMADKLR
Sequence of IMP-1 (P52699 whole entry, looked up, species assumed): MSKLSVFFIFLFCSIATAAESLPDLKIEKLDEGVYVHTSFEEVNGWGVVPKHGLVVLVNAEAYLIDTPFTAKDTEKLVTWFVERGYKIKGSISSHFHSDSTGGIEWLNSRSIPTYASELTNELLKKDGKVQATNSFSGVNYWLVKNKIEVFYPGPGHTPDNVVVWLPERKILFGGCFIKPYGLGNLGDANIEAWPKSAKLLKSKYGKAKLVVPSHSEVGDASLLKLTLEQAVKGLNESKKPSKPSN

SMILES | Concentration of metallo-β-lactamase inhibitor which restores susceptibility of efflux + (MB9798) strain to imipenem [1] | Concentration of metallo-β-lactamase inhibitor which restores susceptibility of efflux − (MB9799) strain to imipenem [2] | IC50 [3] [nM] | IC50 [4] [nM] | Klebsiella pneumoniae MITC95 [5] [µM] | Escherichia coli MITC95 [6] [µM] | Serratia marcescens MITC95 [7] [µM] | IC50 [8, 10] [nM] | Efflux ratio [9] | IC50 ([8]; VIM-1 IC50, fluorescence assay) [nM] | IC50 ([8]; read-out: VIM-1 IC50, fluorescence assay) [nM]
NCCNS(=O)(=O)c1ccc(-c2ccc3sc(CN)nc3c2)c(-c2nn[nH]n2)c1S(N)(=O)=O [Example 476, N1-(2-aminoethyl)-4-(2-(aminomethyl)benzo[d]thiazol-5-yl)-3-(2H-tetrazol-5-yl)benzene-1,2-disulfonamide] | 0.7813 | 0.7813 | 0.27 | 0.281 | 1.563 | 1.563 | 0.7813 | 0.121 | 1.00 |  | 
Cc1cc(-c2ccc(S(=O)(=O)NC[C@H](O)CN)c(S(N)(=O)=O)c2-c2nn[nH]n2)cnc1N [Example 477, (R)—N1-(3-amino-2-hydroxypropyl)-4-(6-amino-5-methylpyridin-3-yl)-3-(2H-tetrazol-5-yl)benzene-1,2-disulfonamide] | 1.563 | 0.7813 | 0.28 | 0.842 | 1.563 | 0.1953 | 0.7813 | 0.132 | 2.00 |  | 
NC[C@@H](O)CNS(=O)(=O)c1ccc(-c2cnc(N)c(F)c2)c(-c2nn[nH]n2)c1S(N)(=O)=O [Example 478, (R)-N1-(3-amino-2-hydroxypropyl)-4-(6-amino-5-fluoropyridin-3-yl)-3-(2H-tetrazol-5-yl)benzene-1,2-disulfonamide] | 0.7813 | 0.7813 | 0.159 | 0.677 | 3.125 | 1.563 | 1.563 |  | 1.00 | 0.0914 | 
C[C@H](N)CNS(=O)(=O)c1ccc(-c2ccc(N)nc2)c(-c2nn[nH]n2)c1S(N)(=O)=O [Example 479, (S)—N1-(2-aminopropyl)-4-(6-aminopyridin-3-yl)-3-(2H-tetrazol-5-yl) benzene-1,2-disulfonamide] | 0.7813 | 0.7813 | 0.224 | 0.664 | 1.563 | 0.1953 | 0.7813 | 0.299 | 1.00 |  | 
C[C@@H](N)CNS(=O)(=O)c1ccc(-c2ccc(N)nc2)c(-c2nn[nH]n2)c1S(N)(=O)=O [Example 480, (R)—N1-(2-aminopropyl)-4-(6-aminopyridin-3-yl)-3-(2H-tetrazol-5-yl) benzene-1,2-disulfonamide] | 0.7813 | 0.7813 | 0.227 | 0.32 | 1.563 | 0.1953 | 0.3906 | 0.249 | 1.00 |  | 
NS(=O)(=O)c1c(S(=O)(=O)NC[C@H]2CNCCN2)ccc(-c2cccc3[nH]cnc23)c1-c1nn[nH]n1 [Example 481, (R)-4-(1H-benzo[d]imidazol-4-yl)-N1-(piperazin-2-ylmethyl)-3-(1H-tetrazol-5-yl)benzene-1,2-disulfonamide] | 1.563 | 1.563 | 0.0455 | 0.251 | 3.125 | 3.125 | 1.563 | 0.119 | 1.00 |  | 
NCCNCCNS(=O)(=O)c1ccc(-c2ccc(N)nc2)c(-c2nn[nH]n2)c1S(N)(=O)=O [Example 482, N1-(2-(-2-amineoethylamino)ethyl)-4-(6-aminopyridin-3-yl)-3-(2H-tetrazol-5-yl)benzene-1,2-disulfonamide] | 1.563 | 0.7813 | 0.537 | 1.14 | 1.563 | 0.1953 | 0.7813 |  | 2.00 | 0.333 | 
Nc1ccc(-c2ccc(S(=O)(=O)NC3CC(N)C3)c(S(N)(=O)=O)c2-c2nn[nH]n2)cn1 [Example 483, N1-((1R,3R)-3-aminocyclobutyl)-4-(6-aminopyridin-3-yl)-3-(2H-tetrazol-5-yl)benzene-1,2-disulfonamide] | 0.7813 | 0.7813 | 0.0927 | 0.33 | 1.563 | 1.758 | 0.7813 |  | 1.00 |  | 0.115
Nc1ccc(-c2ccc(S(=O)(=O)NC[C@H]3CCNC3)c(S(N)(=O)=O)c2-c2nn[nH]n2)cn1 [Example 484, (S)-4-(6-aminopyridin-3-yl)-N1-(pyrrolidin-3-ylmethyl)-3-(2H-tetrazol-5-yl)benzene-1,2-disulfonamide] | 0.7813 | 0.7813 | 0.102 | 0.248 | 3.125 | 0.1953 | 0.3906 | 0.131 | 1.00 |  | 
Nc1ccc(-c2ccc(S(=O)(=O)N3CCNCC3)c(S(N)(=O)=O)c2-c2nn[nH]n2)cn1 [Example 485, 3-(6-aminopyridin-3-yl)-6-(piperazin-1-ylsulfonyl)-2-(2H-tetrazol-5-yl)benzenesulfonamide] | 6.25 | 0.7813 | 2.22 | 3.58 | 1.563 | 0.1953 | 0.7813 | 2.3 | 8.00 |  | 

From US10221163B2 (priority 2015, dated 2019)
